Each block holds one compound with its values, some of them ahead of it.
Columns and labels:
Cytochrome P450 3A4 = Cytochrome P450 3A4 (Homo sapiens, UniProt P08684); assay: Inhibition of CYP3A4 after 30 mins by fluorescence assay; assay type: ADME
[1] = Drug metabolism in Penicillium ulaiense assessed as 6,7-furano-5-(6',7'-dihydroxygeranyloxy)-2-hydroxy-hydrocoumaric acid level at 78.2 uM after 5 days; assay type: ADME; conditions: 120 h
[2] = Drug metabolism in Phomopsis citri assessed as bergaptol level at 78.2 uM after 5 days; assay type: ADME; conditions: diaporthe citri, 120 h
Lasiodiplodia theobromae [3] = assay: Drug metabolism in Lasiodiplodia theobromae assessed as bergaptol level at 78.2 uM after 5 days; assay type: ADME, organism-based; conditions: in vivo, 120 h
Geotrichum [4] = assay: Drug metabolism in Geotrichum citri assessed as bergaptol level at 78.2 uM after 5 days; assay type: ADME, organism-based; conditions: in vivo, 120 h
[5] = Drug metabolism in Penicillium ulaiense assessed as bergaptol level at 78.2 uM after 5 days; assay type: ADME; conditions: 120 h
[6] = Drug metabolism in Phomopsis citri assessed as 6',7'-dihydroxybergamottin level at 78.2 uM after 5 days; assay type: ADME; conditions: diaporthe citri, 120 h
Lasiodiplodia theobromae [7] = assay: Drug metabolism in Lasiodiplodia theobromae assessed as 6',7'-dihydroxybergamottin level at 78.2 uM after 5 days; assay type: ADME, organism-based; conditions: in vivo, 120 h
Botrytis cinerea [8] = assay: Drug metabolism in Botrytis cinerea assessed as 6',7'-dihydroxybergamottin level at 78.2 uM after 5 days; assay type: ADME, organism-based; conditions: in vivo, 120 h
Geotrichum [9] = assay: Drug metabolism in Geotrichum citri assessed as 6',7'-dihydroxybergamottin level at 78.2 uM after 5 days; assay type: ADME, organism-based; conditions: in vivo, 120 h
Penicillium digitatum [10] = assay: Drug metabolism in Penicillium digitatum assessed as 6',7'-dihydroxybergamottin level at 78.2 uM after 5 days; assay type: ADME, organism-based; conditions: in vivo, 120 h
[11] = Drug metabolism in Penicillium ulaiense assessed as 6',7'-dihydroxybergamottin level at 78.2 uM after 5 days; assay type: ADME; conditions: 120 h
[12] = Drug metabolism in Phomopsis citri assessed as compound level at 78.2 uM after 5 days; assay type: ADME; conditions: diaporthe citri, 120 h
Lasiodiplodia theobromae [13] = assay: Drug metabolism in Lasiodiplodia theobromae assessed as compound level at 78.2 uM after 5 days; assay type: ADME, organism-based; conditions: in vivo, 120 h
Geotrichum [14] = assay: Drug metabolism in Geotrichum citri assessed as compound level at 78.2 uM after 5 days; assay type: ADME, organism-based; conditions: in vivo, 120 h
Botrytis cinerea [15] = assay: Drug metabolism in Botrytis cinerea assessed as compound level at 78.2 uM after 5 days; assay type: ADME, organism-based; conditions: in vivo, 120 h
[16] = Drug metabolism in Penicillium ulaiense assessed as compound level at 78.2 uM after 5 days; assay type: ADME; conditions: 120 h
Penicillium digitatum [17] = assay: Drug metabolism in Penicillium digitatum assessed as compound level at 78.2 uM after 5 days; assay type: ADME, organism-based; conditions: in vivo, 120 h
Penicillium digitatum [18] = assay: Drug metabolism in Penicillium digitatum assessed as 6,7-furano-5-(6',7'-dihydroxygeranyloxy)-2-hydroxy-hydrocoumaric acid level at 78.2 uM after 5 days; assay type: ADME, organism-based; conditions: in vivo, 120 h
Geotrichum [19] = assay: Drug metabolism in Geotrichum citri assessed as 6,7-furano-5-(6',7'-dihydroxygeranyloxy)-2-hydroxy-hydrocoumaric acid level at 78.2 uM after 5 days; assay type: ADME, organism-based; conditions: in vivo, 120 h
Botrytis cinerea [20] = assay: Drug metabolism in Botrytis cinerea assessed as 6,7-furano-5-(6',7'-dihydroxygeranyloxy)-2-hydroxy-hydrocoumaric acid level at 78.2 uM after 5 days; assay type: ADME, organism-based; conditions: in vivo, 120 h
Lasiodiplodia theobromae [21] = assay: Drug metabolism in Lasiodiplodia theobromae assessed as 6,7-furano-5-(6',7'-dihydroxygeranyloxy)-2-hydroxy-hydrocoumaric acid level at 78.2 uM after 5 days; assay type: ADME, organism-based; conditions: in vivo, 120 h
[22] = Drug metabolism in Phomopsis citri assessed as 6,7-furano-5-(6',7'-dihydroxygeranyloxy)-2-hydroxy-hydrocoumaric acid level at 78.2 uM after 5 days; assay type: ADME; conditions: diaporthe citri, 120 h
[23] = Drug metabolism in submerged cultures of Penicillium ulaiense assessed as decrease in compound concentration at 23.7 uM after 2 days; assay type: ADME; conditions: read-out: Drug metabolism
[24] = Drug metabolism in submerged cultures of Penicillium ulaiense assessed as decrease in compound concentration at 23.7 uM after 8 days; assay type: ADME; conditions: 192 h
Geotrichum [25] = assay: Drug metabolism in Geotrichum citri assessed as production of 6,7-furano-5-(6',7'-dihydroxygeranyloxy)-2-hydroxy-hydrocoumaric acid at 23.7 uM after 2 days; assay type: ADME, organism-based; conditions: in vivo, 48 h
[26] = Drug metabolism in Penicillium ulaiense assessed as production of 6,7-furano-5-(6',7'-dihydroxygeranyloxy)-2-hydroxy-hydrocoumaric acid at 23.7 uM upto 10 days; assay type: ADME; conditions: 240 h
[27] = Drug metabolism in Penicillium ulaiense assessed as production of bergaptol at 23.7 uM up to 10 days; assay type: ADME; conditions: 240 h
[28] = Drug metabolism in Penicillium ulaiense assessed as decrease in 6',7'-dihydroxybergamottin level at 23.7 uM after 4 days; assay type: ADME; conditions: 96 h
[29] = Drug metabolism in Penicillium ulaiense assessed as production of 6,7-furano-5-(6',7'-dihydroxygeranyloxy)-2-hydroxy-hydrocoumaric acid at 23.7 uM after 2 days; assay type: ADME; conditions: 48 h

Cytochrome P450 3A4, sequence (P08684 whole entry): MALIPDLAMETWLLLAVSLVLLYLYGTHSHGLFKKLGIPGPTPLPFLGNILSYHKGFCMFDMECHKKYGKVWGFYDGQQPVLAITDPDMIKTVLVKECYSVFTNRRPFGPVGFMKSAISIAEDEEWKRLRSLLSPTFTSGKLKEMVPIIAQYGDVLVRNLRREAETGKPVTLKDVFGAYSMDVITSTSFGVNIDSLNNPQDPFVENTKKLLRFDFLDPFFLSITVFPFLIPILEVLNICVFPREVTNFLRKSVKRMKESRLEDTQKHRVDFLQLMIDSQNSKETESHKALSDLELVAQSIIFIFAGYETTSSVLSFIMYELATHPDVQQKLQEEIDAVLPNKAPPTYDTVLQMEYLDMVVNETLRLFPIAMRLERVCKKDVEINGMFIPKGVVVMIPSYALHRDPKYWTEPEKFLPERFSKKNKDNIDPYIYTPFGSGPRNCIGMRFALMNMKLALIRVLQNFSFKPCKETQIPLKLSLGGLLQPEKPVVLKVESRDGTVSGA

- IC50 (Cytochrome P450 3A4): 810 nM
SMILES: C/C(=C\COc1c2ccoc2cc2oc(=O)ccc12)CC[C@@H](O)C(C)(C)O

- IC50 (Cytochrome P450 3A4): > 172000 nM
SMILES: C/C(=C\COc1c(CCC(=O)O)c(O)cc2occc12)CCC(O)C(C)(C)O (stereo unspecified)

- Drug metabolism [1]: 46.6 µM
- Drug metabolism [2]: 0.7 µM
- Drug metabolism (Lasiodiplodia theobromae [3]): 10.3 µM
- Drug metabolism (Geotrichum [4]): 3.9 µM
- Drug metabolism [5]: 0.3 µM
- Drug metabolism [6]: 3.3 µM
- Drug metabolism (Lasiodiplodia theobromae [7]): 23.9 µM
- Drug metabolism (Botrytis cinerea [8]): 5 µM
- Drug metabolism (Geotrichum [9]): 7.3 µM
- Drug metabolism (Penicillium digitatum [10]): 8.3 µM
- Drug metabolism [11]: 0.5 µM
- Drug metabolism [12]: 1.3 µM
- Drug metabolism (Lasiodiplodia theobromae [13]): 1.1 µM
- Drug metabolism (Geotrichum [14]): 8.2 µM
- Drug metabolism (Botrytis cinerea [15]): 1.3 µM
- Drug metabolism [16]: 0.7 µM
- Drug metabolism (Penicillium digitatum [17]): 0.1 µM
- Drug metabolism (Penicillium digitatum [18]): 32 µM
- Drug metabolism (Geotrichum [19]): 24.3 µM
- Drug metabolism (Botrytis cinerea [20]): 25.1 µM
- Drug metabolism (Lasiodiplodia theobromae [21]): 12.6 µM
- Drug metabolism [22]: 4.1 µM
- metabolised at 48 h, 23.7 µM [23]: > 90%
- Drug metabolism [24]: Active
- Drug metabolism (Geotrichum [25]): 7.4 µM
- Drug metabolism [26]: Active
- Drug metabolism [27]: Active
- Drug metabolism [28]: Active
- Drug metabolism [29]: < 0.5 µM
SMILES: C/C(=C\COc1c2ccoc2cc2oc(=O)ccc12)CCC1OC1(C)C (stereo unspecified) [6',7'-EPOXYBERGAMOTTIN]
